Results as given in patent publication EP4100520B1, “SYSTEM AND METHOD OF TR[…] STATES INFORMATION, […] MACR[…]” (Beznosiuk, Jaroslaw, priority 2020, dated 2021).

Legend:
human muscle enolase = target: T1, human muscle enolase (Homo sapiens, UniProt P13929); assay: Enolase glycation with methylglyoxal: specific activity of enolase (absorbance increase at 240 nm, 2-PGA to PEP); assay type: biochemical; details: for K(1)i / K(1)0 / K(1)i / K(2)i: K1, without entanglement elements; for K(1)i / K(1)0 / Wi / W0: activity relative to own initial value; for Wi / W0 / Wi / K(2)i: W, with entanglement elements
T1 construct: Enolase was isolated from human muscle tissue using own method; from tissue; host or cells: human muscle tissue
Description: Methylglyoxal was chosen as an enolase modifying agent because it is formed in the body mainly as a product of defective glycolysis or in the lipid peroxidation process, as well as a result of disorders of defence systems against carbonyl and oxidative stress. Simultaneously, enolase glycation was performed without exposure to the second entanglement elements 9, 9a of the second and third pair of entanglement elements. The second control was a sample of enolase that was not glycated and not treated with the second entanglement elements 9, 9a of the second and third pair of entanglement elements.
The second entanglement elements 9, 9a of the second and third pair of entanglement elements were aluminium plates, 1 cm by 2 cm in size, which were kept for 30 min at room temperature prior to testing. Enolase was isolated from human muscle tissue using own method (Bednarz-Misa I, Pietkiewicz J, et al., 2009. Adv.Clin.Exp.Med. Vol.18 no.1; p.71-78). The enzyme stock solution was a preparation of 7.5 mM of imidazole-HCl, pH 6.8, in stabilizing buffer, containing 2.5 mM of MgSO4, 50 mM of NaCl, 50% of glycerol (formulation stored at 4°C). The concentration of enolase in the stock solution Ro was 8 mg/ml (87 µM), while the enzyme specific activity was 25 IU/mg. In glycation mixtures, the enzyme concentration was 1 mg/ml (Ro diluted 8x with PBS buffer, pH 7.4).
In the experiment, a standard test buffer of 50 mM imidazole-HCl pH 6.8.3 mM MgSO4, 0.4M KCI and a substrate of 2-PGA (sodium salt) dissolved in H2O - a stock solution R0 at a concentration of 58.5 mM was used. 2-PGA in the enzyme assay was used at a standard concentration of 1 mM.
Protein concentration was determined spectrophotometrically by measuring the absorbance of enolase solution at 280 nm wavelength using quartz cuvettes. In the present system, quartz cuvettes constituted the end tanks 10 made of polar dielectric 5. Enolase activity was determined by monitoring in a Jasco UV-Vis V-530 spectrophotometer within 60 seconds, the increase in absorbance of the test solution at 240 nm wavelength (a measure of reaction product production, PEP). The specific activity of the enzyme was expressed in international units relative to 1 mg of protein (Bednarz-Misa I, Pietkiewicz J, et al., 2009. Adv.Clin.Exp.Med. 18(1);71-78).
Two glycation systems were prepared using a large excess of methylglyoxal in relation to enolase (ratio 1:300 mol:mol) - in accordance with the conditions according to [Pietkiewicz J. et al., 2011, Protein J. 30 (3):149-158]: • a) Substantive test: glycation of enolase treated with second entanglement elements 9, 9a of the second and third pair of entanglement elements.
175 µl of PBS pH 7.4 buffer were placed in the quartz cuvette, 20 µl of enolase stock solution and 5.5 µl of 0.8% aqueous methylglyoxal solution were added. In such a system, the effect of quantum information transmitted from source medium 2 (silicon monocrystal) on the modification of the glycolysis/gluconeogenesis enzyme enolase by methylglyoxal as a reactive glycating agent was studied.
In order to transmit quantum information from the source medium 2, the mixture was subjected for 3 hours to two second entanglement elements 9, 9a of the second and third pair of entanglement elements (which adhered to both sides of the cuvette). The system was kept at room temperature. b) Control test 1: glycation of enolase not treated with second entanglement elements 9, 9a of the second and third pairs of entanglement elements.
The reaction system was prepared as a substantive test (a). Incubation at room temperature occurred at the same time, without contact with the second entanglement elements 9, 9a of the second and third pair of entanglement elements (3 m distance from the substantive test). c) Control test 2: Unmodified enolase, not treated with second entanglement elements 9, 9a of the second and third pair of entanglement elements. […]

enolase = target: T2, enolase (Homo sapiens, UniProt P13929); assay: Electrophoresis to detect high molecular weight advanced glycation products (AGE) of enolase; details: 3 h glycation
T2 construct: Enolase was isolated from human muscle tissue using own method; from tissue; host or cells: human muscle tissue
Description: The glycation process was interrupted after 3 hours by adding an aqueous solution of lysine at a concentration of 4 mg/ml to methylglyoxal samples (excess lysine bound unreacted methylglyoxal).
In order to detect the presence of high molecular weight products of advanced glycation of enolase (AGE), samples of each mixture were electrophoresized. Electrophoresis conditions according to [Pietkiewicz J. et al., 2011, Protein J. 30 (3):149-158]. 12 ug of protein from the analyzed samples was applied to the gel paths.

[1] = relative to unmodified enolase control K2 at same time, 1 h
[2] = relative to unmodified enolase control K2 at same time, 2 h
[3] = relative to unmodified enolase control K2 at same time, 3 h

T1 sequence (P13929 whole entry): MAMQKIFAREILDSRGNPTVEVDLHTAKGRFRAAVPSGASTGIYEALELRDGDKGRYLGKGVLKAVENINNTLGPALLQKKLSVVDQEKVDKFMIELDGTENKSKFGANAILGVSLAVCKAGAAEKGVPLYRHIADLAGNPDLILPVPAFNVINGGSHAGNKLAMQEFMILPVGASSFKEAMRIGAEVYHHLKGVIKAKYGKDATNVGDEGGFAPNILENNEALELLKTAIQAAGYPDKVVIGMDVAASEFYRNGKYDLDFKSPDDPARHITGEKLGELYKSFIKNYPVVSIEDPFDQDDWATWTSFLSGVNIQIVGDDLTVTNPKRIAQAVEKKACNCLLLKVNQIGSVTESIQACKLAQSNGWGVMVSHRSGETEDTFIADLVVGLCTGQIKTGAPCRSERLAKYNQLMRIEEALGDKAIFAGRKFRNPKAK
T2 sequence (P13929 whole entry): as above

Compound: CC(=O)C=O [methylglyoxal]
- Activity (human muscle enolase; Control test 1 (K1): enolase + methylglyoxal (1:300 mol:mol), without entanglement elements, incubation time 0 h, room temperature): 24.6 IU/mg
- Activity (human muscle enolase; Control test 1 (K1): enolase + methylglyoxal, without entanglement elements, incubation time 1 h): 21.37 IU/mg
- Activity (human muscle enolase; Control test 1 (K1): enolase + methylglyoxal, without entanglement elements, incubation time 2 h): 19.15 IU/mg
- Activity (human muscle enolase; Control test 1 (K1): enolase + methylglyoxal, without entanglement elements, incubation time 3 h): 17.64 IU/mg
- K(1)i / K(1)0 (human muscle enolase; 0 h): 100%
- K(1)i / K(1)0 (human muscle enolase; 1 h): 86.9%
- K(1)i / K(1)0 (human muscle enolase; 2 h): 77.85%
- K(1)i / K(1)0 (human muscle enolase; 3 h): 71.7%
- K(1)i / K(2)i (human muscle enolase; activity relative to unmodified enolase control K2 at same time, 0 h): 99.6%
- K(1)i / K(2)i (human muscle enolase; [1]): 93.8%
- K(1)i / K(2)i (human muscle enolase; [2]): 88.8%
- K(1)i / K(2)i (human muscle enolase; [3]): 90.6%
- Activity (human muscle enolase; Substantive test (W): enolase + methylglyoxal + entanglement elements, incubation time 0 h, room temperature): 29.22 IU/mg
- Activity (human muscle enolase; Substantive test (W): enolase + methylglyoxal + entanglement elements, incubation time 1 h): 25.78 IU/mg
- Activity (human muscle enolase; Substantive test (W): enolase + methylglyoxal + entanglement elements, incubation time 2 h): 24.12 IU/mg
- Activity (human muscle enolase; Substantive test (W): enolase + methylglyoxal + entanglement elements, incubation time 3 h): 23.4 IU/mg
- Wi / W0 (human muscle enolase; 0 h): 100%
- Wi / W0 (human muscle enolase; 1 h): 88.2%
- Wi / W0 (human muscle enolase; 2 h): 82.5%
- Wi / W0 (human muscle enolase; 3 h): 80.1%
- Wi / K(2)i (human muscle enolase; relative to unmodified enolase control K2 at same time, 0 h): 118.3%
- Wi / K(2)i (human muscle enolase; [1]): 113.2%
- Wi / K(2)i (human muscle enolase; [2]): 117.3%
- Wi / K(2)i (human muscle enolase; [3]): 120.1%
- activity of the glycated enzyme relative to unmodified control test (human muscle enolase; in the presence of entanglement elements, throughout the experiment (0-3 h)): 113%-120
- decrease in specific activity (human muscle enolase; sample K1, after 3 hours of glycation, without entanglement elements): approx. 28%
- AGE of Mw 180 and Mw 230 kDa (enolase; control test, glycation in the absence of entanglement elements (path 2, fig. 6)): observed
- AGE of Mw 180 and Mw 230 kDa (enolase; substantive test treated with entanglement elements (path 1, fig. 6)): observed
